According to US20030232860A1, “Medicine comprising dicyanopyridine derivative” (priority 2000, published 2003):
Where a name gives a salt, the structure may show the parent alone.

Key:
[1] = tested on: rat's removed bladder specimen; test: Inhibition of the contraction of rat's removed bladder specimen (15 mM K+-induced contraction, organ bath); details: SD male rat bladder strips, dose giving 50% inhibition of contraction area
Description: Since the inhibitory action is blocked by a known maxi-K channel blocker charybdotoxin or iberiotoxin, it is confirmed that the effect of the compounds of the invention is based on the maxi-K channel opening effect. Thus, the pharmacological effect of the compounds of the invention was confirmed according to the following method.
<Inhibitory Effect in Construction of the Rat's Removed Bladder Specimen>
In this experiment, SD-family male rats (9-13 weeks of age) were used. The rats were killed by bleeding under ether anesthesia, and the bladders were removed. The removed bladders were immediately washed in a Kiebs-Henseleit solution (NaCl 118.4, KCl 4.7, KH2PO4 1.2, MgSO4 1.2, CaCl2 2.5, NaHCO3 25.0, glucose 11.1 [mM], aeration with 95% O2/5% CO2 mixed gas) kept at 37° C., and prepared into rectangular specimens of about 10 mm long and about 2 mm width on a Petri dish filled with the Klebs-Henseleit solution. The respective specimens were ligated at the both ends with a cotton string via a wire hook, and the one end was fixed to an FD pick-up and the other hung down vertically in an organ bath filled with the Klebs-Henseleit solution. After completion of the operation, 1.0 g of static tensile stress was given to the respective slices, which were then allowed to stand for 1.5-2 hours to stabilize. Then, a KCl solution was added to the organ bath so that the final K^+ ion concentration become 15 mM to induce the contraction. Thereafter, the specimens were further allowed to stand for about 1-2 hours to stabilize, and the test was started. The contraction of the smooth muscle was measured isometrically through the FD pick-up, and the output signal was amplified through a strain stress amplifier to continuously record a chart on a pen recorder. At the same time, the respective contraction wave forms to be analyzed were recorded on a personal computer as magnetic data through an analogue/digital signal converter, and the under-area of the contraction was calculated by analytical software. The contraction 5 minutes immediately after the start of the test was regarded as the value before administration of the drug to be tested (100% reference value). The drug to be tested was added into the bath at intervals of 30 minutes, and the contraction for 5 minutes, respectively 25 minutes after the administration, was analyzed. The drug to be tested was administered at a common ratio of 3 or 10 accumulatively. The effect of the drug to be tested was represented by the dose by which 50% inhibition was attained to the value before the administration (100% reference value). Additionally, the wave form of contraction at the highest dose of the drug was recorded, and then a maxi-K channel selective blocker, charybdotoxin or iberiotoxin, was administered so that the final concentration in the organ bath became 100 nM. Thus, the effect of the drug was observed whether it was blocked or not.

[2] = tested on: rhythmic bladder contraction in rats under urethane anesthesia; test: Rhythmic contraction of the bladder in rats under urethane anesthesia; assay type: in vivo, rat; details: urethane-anesthetized SD female rats, i.d.; for inhibition in vivo at 10 mg/kg: Rattus norvegicus, intraduodenal, up to 2 hours, read-out: Inhibition of frequency of the bladder contraction max % inhibition; for Frequency of Bladder Contraction Retention time of 50% Inhibition: 10 mg/kg
Description: <Effect on the Rhythmic Contraction of the Bladder in Rats Under Urethane Anesthesia>
SD-Family female rats (about 300 g) were used. A catheter was inserted into the bladder through the external urethral orifice under urethane anesthesia and spontaneous breathing. The other end was connected to a pressure transducer and an infusion pump through a three-way cock. On the other hand, another catheter for measuring blood pressure was inserted into the right common carotid artery. Physiological saline warmed at about 38° C. was injected in the bladder at a rate of 4.2 ml/hr until rhythmical bladder contraction was induced. Change of the internal pressure in the bladder was continuously recorded on a recorder. After the rhythmical bladder contraction was stabilized, a test compound suspended in 0.5% methylcellulose aqueous solution was administered through a catheter which had been attached to the duodenum. Thus, frequency of the bladder contraction (every 10 minutes), force of bladder contraction and average blood pressure were observed as evaluation items up to 2 hours after administration of the test compound.

[3] = tested on: murine removed bladder smooth muscle; details: cited from earlier work
[4] = tested on: rhythmic vesical contraction in an anesthetized rat; details: cited from earlier work

Row | Structure (SMILES) | IC50 [1] | melting point | inhibition in vivo at 10 mg/kg [2] | Frequency of Bladder Contraction Retention time of 50% Inhibition [2] | Relaxant effect for the murine removed bladder smooth muscle [3] | Rhythmic vesical contraction [4]
1 | COc1nc(N)c(C#N)c(-c2ccccc2F)c1C#N [Example 3, 2-amino-6-methoxy-4-(2-fluorophenyl)pyridine-3,5-dicarbonitril] | 230 nM | 240 to 241 °C | 97% | 39 min |  | 
2 | COc1nc(N)c(C#N)c(C2CCCCO2)c1C#N (stereo not shown) [Example 6, 2-amino-4-(2-tetrahydropyranyl)-6-methoxypyridine-3,5-dicarbonitrile] | 1300 nM | 134 to 135 °C | 65% | 39 min |  | 
3 | C#CCOc1nc(N)c(C#N)c(-c2ccccc2F)c1C#N [Example 11, 2-amino-4-(2-fluorophenyl)-6-(prop-2-yn-1-yloxy)pyridine-3,5-dicarbonitrile] | 410 nM | 205 to 206 °C | 87% | 27 min |  | 
4 | N#Cc1c(N)nc(OCC(F)F)c(C#N)c1-c1ccccc1F [Example 12, 2-amino-6-(2,2-difluoroethoxy)-4-(2-fluorophenyl)pyridine-3,5-dicarbonitrile] | 410 nM | 219 to 220 °C | 77% | 31 min |  | 
5 | COc1nc(N)c(C#N)c(-c2ccc(N)cc2)c1C#N.Cl.O [Example 20, 2-amino-(4-aminophenyl)-6-methoxypyridine-3,5-dicarbonitrile monohydrochloride monohydrate] | 110 nM |  | 86% | 40 min |  | 

More lines, main results first:

Row | IC50 [1] | melting point | Structure (SMILES) | inhibition in vivo at 10 mg/kg [2] | Frequency of Bladder Contraction Retention time of 50% Inhibition [2] | Relaxant effect for the murine removed bladder smooth muscle [3] | Rhythmic vesical contraction [4]
6 | 2800 nM |  | N#Cc1c(N)nc(OCCOC(=O)[C@@H](N)Cc2ccccc2)c(C#N)c1-c1ccccc1 [Example 15, 2-[(2-amino-3,5-dicyano-4-phenylpyridin-6-yl)oxy]ethyl (S)-2-amino-3-phenylpropanoate monohydrochloride monohydrate] | 89% | 36 min |  | 
7 | 1400 nM | 192 to 193 °C | COc1nc(NC(C)=O)c(C#N)c(-c2ccccc2F)c1C#N [Example 58, N-[3,5-dicyano-4-(2-fluorophenyl)-6-methoxypyridin-2-yl]acetamide] | 93% | 46 min |  | 
8 | 1300 nM | 139 to 140 °C | COc1nc(N)c(C#N)c(CC2CCCCC2)c1C#N [Example 150, 2-amino-4-cyclohexylmethyl-6-methoxypyridine-3,5-dicarbonitrile] | 81% | 30 min |  | 
9 | 1000 nM | 215 to 216 °C | COc1nc(N)c(C#N)c(Cc2ccccc2)c1C#N [Example 151, 2-amino-4-benzyl-6-methoxypyridine-3,5-dicarbonitrile] | 71% | 26 min |  | 
10 | 1100 nM |  | Cc1c(-c2ccccc2F)[nH]c(N)c1C#N [NS-8] |  |  | exhibits a relaxant effect | makes rhythmic vesical contraction subsided
